This passage reports Ki results from BindingDB's records for doi:10.1021/jm201198w (University of Kentucky, 2012).

Each structure is given as a SMILES string.

The assay deals with Tyrosine-protein kinase SYK (Homo sapiens) (UniProt P43405). Kind of assay: Inhibition of SYK.

Broadly, the Ki is a measure of affinity in units of concentration, obtained from inhibition or displacement. As to `Nc1nc(Nc2ccc([C@H]3CC[C@H](N4CCOCC4)CC3)cc2)nn1-c1ccccn1`, the affinity corresponds to a Ki of 220 nM.
